{"source": "patent US20230146455A1", "about": "“TREATMENT OF INFLAMMATORY DISEASES WITH PEPTIDES AND PHARMACEUTICAL COMPOSITIONS” (Yuyu Pharma, Inc., priority 2020, published 2023)", "tested_on": "CCL20/MIP-3 alpha", "assay": "Example 9 Luminex, LPS hPBMCs: CCL20/MIP-3 alpha", "format": "cell-based, human", "description": "Treatment Human PBMCs were pretreated with YY-101, YDE-011 and YDE-043 or reference compound; Xiidra® at various concentration (ranging from 1 nM to 100 uM) for 2 h before stimulation. An equal volume of 0.5% DMSO was used as a vehicle control. Then, the cells were treated with LPS at 5 ug/ml. The supernatants from treated cells were harvested at 24 h and placed in a 96 well for Luminex cytokine & chemokine profiling using a Luminex 200 multiplex assay (Luminex; R&D system, USA).\nThe main study arm with triplicate wells per group in a 24-well plate: • 1. Blank • 2. PBMC: 0.5% DMSO • 3. PBMC+LPS (5 ug/ml) • 4. PBMC+YY-101 100 uM • 5. PBMC+YY-101 10 uM • 6. PBMC+YY-101 1 uM • 7. PBMC+YY-101 0.1 uM • 8. PBMC+YY-101 0.01 uM • 9. PBMC+LPS (5 ug/ml)+Xiidra®100 uM • 10. PBMC+LPS (5 ug/ml)+Xiidra® 10 uM • 11. PBMC+LPS (5 ug/ml)+Xiidra® 1 uM • 12. PBMC+LPS (5 ug/ml)+Xiidra®0.1 uM • 13. PBMC+LPS (5 ug/ml)+Xiidra®0.01 uM • 14. PBMC+LPS (5 ug/ml)+Xiidra®0.001 uM • 15. PBMC+LPS (5 ug/ml)+YY-101 100 uM • 16. PBMC+LPS (5 ug/ml)+YY-101 10 uM • 17. PBMC+LPS (5 ug/ml)+YY-101 1 uM • 18. PBMC+LPS (5 ug/ml)+YY-101 0.1 uM • 19. PBMC+LPS (5 ug/ml)+YY-101 0.01 uM • 20. PBMC+LPS (5 ug/ml)+YY-101 0.001 uM • 21. PBMC+LPS (5 ug/ml)+YDE-011 100 uM • 22. PBMC+LPS (5 ug/ml)+YDE-011 10 uM • 23. PBMC+LPS (5 ug/ml)+YDE-011 1 uM • 24. PBMC+LPS (5 ug/ml)+YDE-011 0.1 uM • 25. PBMC+LPS (5 ug/ml)+YDE-011 0.01 uM • 26. PBMC+LPS (5 ug/ml)+YDE-011 0.001 uM • 27. PBMC+LPS (5 ug/ml)+YDE-043 100 uM • 28. PBMC+LPS (5 ug/ml)+YDE-043 10 uM • 29. PBMC+LPS (5 ug/ml)+YDE-043 1 uM • 30. PBMC+LPS (5 ug/ml)+YDE-043 0.1 uM • 31. PBMC+LPS (5 ug/ml)+YDE-043 0.01 uM • 32. PBMC+LPS (5 ug/ml)+YDE-043 0.001 uM\nMultiplex assay was used to measure 30 cytokines and chemokines. The 1:2, 1:10 and 1:200 diluted cell supernatant and serial dilution of the standard were dispensed into a 96 well plate at 50 ul/well. Then, the pre-mixed cocktail of antibody-coated magnetic beads was dispensed at 50 ul/well and incubated at room temperature for 2 h in a horizontal orbital microplate shaker at 800±500 rpm. The beads were washed using a magnetic device to prevent loss. The biotin-antibody was dispensed in 50 ul of each well and incubated at room temperature for 1 h in a shaker at 800±500 rpm. After washing, streptavidin-PE was added at 50 ul/well and incubated at room temperature for 30 min in a shaker under the same conditions. Finally, after washing, wash buffer (100 ul/well) was added to the plate and incubated in a shaker for 2 min. The Luminex™ 200 setting were set according to the manufacturer's protocol. The data was calculated with a standard five-parameter logistic nonlinear regression analysis of the data (xPonent software 4.2, USA). The levels of cytokine/chemokine are normalized to the live cell counts (1×10^5 cells/mL) and presented as concentrations per mL (pg/mL or ng/mL).", "key": {"[1]": {"conditions": "PBMC + LPS(5 ug/ml) + test article 0.001 uM, Mean"}, "[2]": {"conditions": "PBMC + LPS(5 ug/ml) + test article 0.001 uM, individual replicate"}, "[3]": {"conditions": "PBMC + LPS(5 ug/ml) + test article 0.01 uM, Mean"}, "[4]": {"conditions": "PBMC + LPS(5 ug/ml) + test article 0.01 uM, individual replicate"}, "[5]": {"conditions": "PBMC + LPS(5 ug/ml) + test article 0.1 uM, Mean"}, "[6]": {"conditions": "PBMC + LPS(5 ug/ml) + test article 0.1 uM, individual replicate"}, "[7]": {"conditions": "PBMC + LPS(5 ug/ml) + test article 1 uM, Mean"}, "[8]": {"conditions": "PBMC + LPS(5 ug/ml) + test article 1 uM, individual replicate"}, "[9]": {"conditions": "PBMC + LPS(5 ug/ml) + test article 10 uM, Mean"}, "[10]": {"conditions": "PBMC + LPS(5 ug/ml) + test article 10 uM, individual replicate"}, "[11]": {"conditions": "PBMC + LPS(5 ug/ml) + test article 100 uM, Mean"}, "[12]": {"conditions": "PBMC + LPS(5 ug/ml) + test article 100 uM, individual replicate"}}, "note": "“And” between values parts separate entries of the source, which are not always exact repeats. Equal entries are not always repeated. Where a SMILES comes first, the peptide text is derived from it. [ ]: non-standard residue; d: D form. Hyp = O=C(O)[C@@H]1C[C@@H](O)CN1"}
{"smiles": "CC(C)C[C@H](NC(=O)CNC(=O)[C@H](CC(C)C)NC(=O)[C@H](CCC(N)=O)NC(=O)CNC(=O)[C@@H]1C[C@@H](O)CN1)C(=O)N[C@@H](C)C(=O)NCC(=O)N1CCC[C@H]1C(=O)N[C@@H](CCCCN)C(=O)O", "note": "[YDE-011] (H-[Hyp]GQLGLAGPK-OH)", "values": [{"measurement": "Concentration, CCL20/MIP-3 alpha", "setting": "[1]", "value": 246.5, "unit": "pg/mL"}, {"measurement": "MFI, CCL20/MIP-3 alpha", "setting": "[1]", "value": 263.3}, {"measurement": "conc/live cell, CCL20/MIP-3 alpha", "setting": "[1]", "value": 46.9, "unit": "pg/10^5"}, {"measurement": "Concentration, CCL20/MIP-3 alpha", "setting": "[2]", "value": "264.2 pg/mL and 223.2 pg/mL and 252.1 pg/mL"}, {"measurement": "MFI, CCL20/MIP-3 alpha", "setting": "[2]", "value": "284.5 and 235.5 and 270.0"}, {"measurement": "conc/live cell, CCL20/MIP-3 alpha", "setting": "[2]", "value": "58.7 pg/10^5 and 38.5 pg/10^5 and 43.5 pg/10^5"}, {"measurement": "Concentration, CCL20/MIP-3 alpha", "setting": "[3]", "value": 255.6, "unit": "pg/mL"}, {"measurement": "MFI, CCL20/MIP-3 alpha", "setting": "[3]", "value": 274.2}, {"measurement": "conc/live cell, CCL20/MIP-3 alpha", "setting": "[3]", "value": 44.2, "unit": "pg/10^5"}, {"measurement": "Concentration, CCL20/MIP-3 alpha", "setting": "[4]", "value": "233.3 pg/mL and 258.8 pg/mL and 274.6 pg/mL"}, {"measurement": "MFI, CCL20/MIP-3 alpha", "setting": "[4]", "value": "247.5 and 278.0 and 297.0"}, {"measurement": "conc/live cell, CCL20/MIP-3 alpha", "setting": "[4]", "value": "37.0 pg/10^5 and 41.7 pg/10^5 and 53.8 pg/10^5"}, {"measurement": "Concentration, CCL20/MIP-3 alpha", "setting": "[5]", "value": 239.4, "unit": "pg/mL"}, {"measurement": "MFI, CCL20/MIP-3 alpha", "setting": "[5]", "value": 254.8}, {"measurement": "conc/live cell, CCL20/MIP-3 alpha", "setting": "[5]", "value": 42.0, "unit": "pg/10^5"}, {"measurement": "Concentration, CCL20/MIP-3 alpha", "setting": "[6]", "value": "238.3 pg/mL and 231.6 pg/mL and 248.4 pg/mL"}, {"measurement": "MFI, CCL20/MIP-3 alpha", "setting": "[6]", "value": "253.5 and 245.5 and 265.5"}, {"measurement": "conc/live cell, CCL20/MIP-3 alpha", "setting": "[6]", "value": "36.1 pg/10^5 and 46.3 pg/10^5 and 43.6 pg/10^5"}, {"measurement": "Concentration, CCL20/MIP-3 alpha", "setting": "[7]", "value": 211.3, "unit": "pg/mL"}, {"measurement": "MFI, CCL20/MIP-3 alpha", "setting": "[7]", "value": 221.5}, {"measurement": "conc/live cell, CCL20/MIP-3 alpha", "setting": "[7]", "value": 42.2, "unit": "pg/10^5"}, {"measurement": "Concentration, CCL20/MIP-3 alpha", "setting": "[8]", "value": "203.6 pg/mL and 208.7 pg/mL and 221.5 pg/mL"}, {"measurement": "MFI, CCL20/MIP-3 alpha", "setting": "[8]", "value": "212.5 and 218.5 and 233.5"}, {"measurement": "conc/live cell, CCL20/MIP-3 alpha", "setting": "[8]", "value": "37.0 pg/10^5 and 43.5 pg/10^5 and 46.1 pg/10^5"}, {"measurement": "Concentration, CCL20/MIP-3 alpha", "setting": "[9]", "value": 230.3, "unit": "pg/mL"}, {"measurement": "MFI, CCL20/MIP-3 alpha", "setting": "[9]", "value": 244.0}, {"measurement": "conc/live cell, CCL20/MIP-3 alpha", "setting": "[9]", "value": 43.9, "unit": "pg/10^5"}, {"measurement": "Concentration, CCL20/MIP-3 alpha", "setting": "[10]", "value": "234.1 pg/mL and 222.3 pg/mL and 234.5 pg/mL"}, {"measurement": "MFI, CCL20/MIP-3 alpha", "setting": "[10]", "value": "248.5 and 234.5 and 249.0"}, {"measurement": "conc/live cell, CCL20/MIP-3 alpha", "setting": "[10]", "value": "43.4 pg/10^5 and 38.3 pg/10^5 and 49.9 pg/10^5"}, {"measurement": "Concentration, CCL20/MIP-3 alpha", "setting": "[11]", "value": 323.4, "unit": "pg/mL"}, {"measurement": "MFI, CCL20/MIP-3 alpha", "setting": "[11]", "value": 356.5}, {"measurement": "conc/live cell, CCL20/MIP-3 alpha", "setting": "[11]", "value": 53.3, "unit": "pg/10^5"}, {"measurement": "Concentration, CCL20/MIP-3 alpha", "setting": "[12]", "value": "342.2 pg/mL and 319.4 pg/mL and 308.7 pg/mL"}, {"measurement": "MFI, CCL20/MIP-3 alpha", "setting": "[12]", "value": "379.5 and 351.5 and 338.5"}, {"measurement": "conc/live cell, CCL20/MIP-3 alpha", "setting": "[12]", "value": "56.1 pg/10^5 and 52.4 pg/10^5 and 51.5 pg/10^5"}]}
